Data set [1] concerns patients with advanced solid tumours. Put plainly: Phase 1 dose-escalation: safety, DLTs, AEs (CTCAE v4.03). It counts as in vivo. The protocol:
AZD2811 was administered as an IV infusion over 2 h. The study included 12 dose-escalation cohorts. In Cohorts 1–6, dosing took place on Days 1 and 4 of a 28-day cycle, at 15 mg, 25 mg, 38 mg, 51 mg, 100 mg, and 200 mg. In Cohort 1, the starting dose was to be administered to a single patient on Days 1 and 4. […] Starting with Cohort 2, at least 3 evaluable patients were enrolled at each dose level (3 + 3 design) and were evaluated for 1 cycle before escalation to the next dose level. If one patient experienced a DLT, an additional 3 patients were treated with the same dose. Therefore, a maximum of 6 evaluable patients could be enrolled per dose level.
In Cohort 7, the Day 4 dose was removed from the schedule, and patients received AZD2811 200 mg on Day 1 of a 28-day cycle. Granulocyte colony-stimulating factor (G-CSF; filgrastim [short-acting G-CSF] or pegfilgrastim [long-acting G-CSF]) as primary prophylaxis for neutropenia was optional in Cohorts 7–9. In Cohorts 8–12, the cycle length was reduced, so dosing occurred on Day 1 of a 21-day cycle, at doses of 200–600 mg. Patients in Cohorts 10–12 received mandatory G-CSF on Day 8 after dosing in Cycle 1 as primary prophylaxis for neutropenia. PEGylated G-CSF (e.g. pegfilgrastim) could not be given later than Day 8 (in a 21-day cycle) due to its long half-life. G-CSF had to be discontinued at least 48 h prior to the next dose of AZD2811.
A DLT was defined as any of the following toxicities that occurred during the DLT evaluation period (the first 28 days [if a 28-day cycle] or the first 21 days [if a 21-day cycle] from the start of AZD2811), unless unequivocally due to underlying malignancy or an extraneous cause: grade 4 neutropenia for >7 days or febrile neutropenia; grade 4 thrombocytopenia or grade 3 thrombocytopenia associated with bleeding; concurrent grade ≥3 elevation of total bilirubin, alanine aminotransferase (ALT), aspartate aminotransferase (AST) or alkaline phosphatase (ALP) lasting >48 h, or any change in liver function test results consistent with Hy’s Law; any grade ≥3 non-haematological AE (except grade 3 nausea, vomiting, stomatitis and/or diarrhoea that was controlled within 4 days with standard supportive care, or grade 3 elevations in ALT/AST that return to meet initial eligibility criteria within 7 days of study drug interruption); inability to receive all doses in Cycle 1 due to treatment-related toxicity; or grade ≥2 non-haematological toxicity at any time during treatment that was deemed to be dose-limiting by the investigator and the medical monitor.
AEs were assessed throughout the treatment and follow-up periods. Patients were followed until all treatment-related toxicity resolved, or for at least 30 days post-study drug discontinuation. AEs were graded according to CTCAE v4.03. Venous blood samples (4 mL) for measurement of AZD2811 concentrations were collected at Cycle 1 Days 1–6, 8, 15, 16, and 22 and Cycle 2 Day 1 in Cohorts 1–6; Cycle 1 Days 1, 4, 8, 12, and 22 in Cohort 7; Cycle 1 Days 1, 4, 8, 12, and 15 and Cycle 2 Day 1 in Cohorts 8–12. Tumour imaging assessments using computed tomography or magnetic resonance imaging of the chest and abdomen/pelvis were performed at screening (≤28 days prior to initiation of treatment), and then every 2 cycles.
The safety analysis set comprised all patients who received at least one dose of AZD2811. The PK analysis set comprised all patients who received at least one dose of AZD2811 with at least one reportable concentration. […] There was no formal statistical analysis of safety and efficacy data. The numbers of patients experiencing each AE were summarised by Medical Dictionary for Regulatory Activities (MedDRA) version 22.1 system organ class, MedDRA preferred term, and CTCAE grade. The ORR and best overall response based on RECIST 1.1 were summarised. AZD2811 blood concentrations and derived PK parameters were summarised by dose regimen. […]

The test system of another data set is LS- or ES-SCLC. As to conditions: cited from earlier work.

The values that follow come from PMC10147685, “Safety, tolerability, and pharmacokinetics of Aurora kinase B inhibitor AZD2811: a phase 1 dose-finding study in patients with advanced solid tumours” (British Journal of Cancer, 2023).

Compound `CCN(CCO)CCCOc1ccc2c(Nc3cc(CC(=O)Nc4cccc(F)c4)n[nH]3)ncnc2c1` [AZD2811, AZD1152 hydroxyquinazoline pyrazole anilide] gave an MTD/RP2D in data set [1] (Day 1 of a 21-day cycle with mandatory G-CSF on Day 8) of 500 mg. For the same compound, in data set [1] (human, in vivo), the “Dose reduction due to AZD2811-related AEs, patients” value worked out at 4.5%; the “Dose reductions due to AZD2811-related AEs, patients” value was found to be 17.2%; the “Doses at which ANC counts <500 cells/μL were observed” value is on record as at least 200 mg/cycle; the “Doses that elicit a pharmacological response in bone marrow” value is given as over 200 mg/cycle. In data set [1] (in vivo), the Neutropenia entry was “not observed” and the “Patients with dose-limiting toxicities” value is “Five”. Further, in data set [1] (not considered related to AZD2811: cardiac arrest (Cohort 9), sepsis (Cohort 11)), the “Deaths due to AEs on treatment” value is “Two”. The “Patients with SD” value in the data set with LS- or ES-SCLC (200 mg AZD2811 on Days 1 and 4 every 28 days, 5/15 patients) is given as 33.3%. For the same compound, the Objective responses result in the data set on LS- or ES-SCLC (200 mg AZD2811 on Days 1 and 4 every 28 days, 15 patients) was “no objective responses”. Also, the “Septic shock due to pneumonia with grade 4 neutropenia, patients” value with LS- or ES-SCLC (without prophylactic G-CSF, 1 of 15 patients) is recorded as 6.7%. For the same compound, the “Febrile neutropenia, patients” value in the data set on LS- or ES-SCLC (without prophylactic G-CSF, 6 of 15 patients) is on record as 40.0%. Also, the “Target-related grade ≥3 neutropenia, patients” value with LS- or ES-SCLC (without prophylactic G-CSF, 9/15 patients) was 60.0%.
